Measured values published in US20250049735A1, “MEDICINE FOR STEATOHEPATITIS” (The University of Tokyo, priority 2021, published 2025).
Like-named read-outs stand apart in the source and are kept apart here.

What was measured:
ATP8B1+CDC50A = biological target: T1, ATP8B1+CDC50A (Homo sapiens, UniProt O43520); test: Flippase (ATP8B1) assay: incorporation of NBD-phospholipids into CHO-K1 cells; format: cell-based; settings: 15° C.
T1 construct: expressed in transfected cells; host or cells: CHO-K1 cells (CCL-61, ATCC), transiently transfected with PEI MAX
T1 sequence (O43520 1-1251): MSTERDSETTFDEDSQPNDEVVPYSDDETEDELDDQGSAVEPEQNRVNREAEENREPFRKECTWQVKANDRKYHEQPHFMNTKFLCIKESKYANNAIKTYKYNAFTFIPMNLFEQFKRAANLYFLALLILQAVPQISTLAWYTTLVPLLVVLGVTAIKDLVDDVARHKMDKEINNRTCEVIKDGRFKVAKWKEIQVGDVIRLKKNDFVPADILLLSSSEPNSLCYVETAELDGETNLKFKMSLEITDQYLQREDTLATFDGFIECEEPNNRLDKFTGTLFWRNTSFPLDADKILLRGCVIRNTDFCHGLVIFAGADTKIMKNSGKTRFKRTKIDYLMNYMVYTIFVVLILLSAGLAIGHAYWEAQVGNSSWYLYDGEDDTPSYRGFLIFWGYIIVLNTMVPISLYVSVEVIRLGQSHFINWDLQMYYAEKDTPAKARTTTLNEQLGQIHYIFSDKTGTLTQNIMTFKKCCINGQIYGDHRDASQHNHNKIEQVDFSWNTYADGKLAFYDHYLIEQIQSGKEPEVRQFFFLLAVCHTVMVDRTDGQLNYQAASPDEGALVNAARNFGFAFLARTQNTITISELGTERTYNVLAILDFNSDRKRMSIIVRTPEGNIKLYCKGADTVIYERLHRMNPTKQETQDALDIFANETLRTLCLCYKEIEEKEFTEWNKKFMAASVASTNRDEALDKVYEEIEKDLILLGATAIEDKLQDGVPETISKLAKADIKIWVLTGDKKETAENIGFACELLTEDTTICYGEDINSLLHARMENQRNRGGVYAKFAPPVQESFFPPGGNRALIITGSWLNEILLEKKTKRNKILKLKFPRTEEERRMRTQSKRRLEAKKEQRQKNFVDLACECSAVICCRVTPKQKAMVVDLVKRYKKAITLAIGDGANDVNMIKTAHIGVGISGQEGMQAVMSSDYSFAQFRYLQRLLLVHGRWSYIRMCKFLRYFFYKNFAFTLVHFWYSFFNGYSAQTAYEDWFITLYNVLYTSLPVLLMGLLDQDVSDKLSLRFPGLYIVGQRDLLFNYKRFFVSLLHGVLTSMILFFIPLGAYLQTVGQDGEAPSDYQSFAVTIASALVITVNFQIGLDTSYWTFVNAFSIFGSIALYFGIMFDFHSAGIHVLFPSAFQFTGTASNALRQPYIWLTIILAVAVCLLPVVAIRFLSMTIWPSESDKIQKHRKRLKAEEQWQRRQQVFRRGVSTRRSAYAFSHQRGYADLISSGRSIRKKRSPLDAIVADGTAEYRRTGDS
T1 sequence (Q9NV96 1-361 partner): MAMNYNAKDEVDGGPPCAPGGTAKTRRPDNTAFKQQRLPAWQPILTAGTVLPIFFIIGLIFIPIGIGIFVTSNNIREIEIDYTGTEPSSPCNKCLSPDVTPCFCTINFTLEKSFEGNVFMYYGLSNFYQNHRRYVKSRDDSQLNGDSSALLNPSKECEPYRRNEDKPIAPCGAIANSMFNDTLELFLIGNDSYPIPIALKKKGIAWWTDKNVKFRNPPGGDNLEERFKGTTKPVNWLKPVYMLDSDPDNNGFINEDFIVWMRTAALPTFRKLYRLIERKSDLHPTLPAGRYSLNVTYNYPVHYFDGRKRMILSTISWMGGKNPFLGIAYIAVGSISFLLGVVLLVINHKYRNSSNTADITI
Procedure: The experiment regarding incorporation of NBD-phospholipids into cells was carried out according to the previous reports (Suzuki et al., Nature 468, 834-838 2010; Takatsu et al., J. Biol. Chem., 289:33543-33556 2014).
To allow CDC50A alone, or ATP8B1 and CDC50A, to express in CHO-K1 cells, the CHO-K1 cells (CCL-61, ATCC, Manassas, VA) were transfected with the plasmids (pShuttle-EV, or pShuttle-ATP8B1-FLAG and pShuttle-HA-CDC50A), using PEI MAX (Polysciences, Warrington, PA). Forty-eight hours after the transfection, the cells were detached from dishes and were collected in PBS containing 5 mM EDTA, and thereafter, the cells were recovered in a precipitate by centrifugation. The cells (2×10^6 cells/sample) were washed and were then equilibrated at 15° C. for 15 minutes in 500 μL of HBSS (14025092, Thermo Fisher Scientific). An equal volume of 1 μg/mL 18:1-06:0 NBD-PC (810132, Avanti Polar Lipids) or 10 μg/mL 12:0 LysoNBD-PC (810128P: Avanti Polar Lipids) was added to the cell suspension, and the obtained mixture was then incubated at 15° C. Thereafter, at each time point, 300 μL of a cell suspension was collected, and was mixed with 300 μl of HBSS (ice cold) containing 5% fatty acid-free BSA (A6003: Sigma-Aldrich) to extract NBD-lipids incorporated into the exoplasmic leaflet of the plasma membrane as well as unincorporated NBD-Lipids.
Next, 10,000 cells were analyzed with a BD FACSCelesta (BD Bioscience, San Jose, CA) to measure the fluorescence of NBD-lipids incorporated into the cytoplasmic leaflet of the plasma membrane. The mean value of the fluorescence intensities per cell was calculated. Propidium iodide (P378: DOJINDO, Kumamoto, Japan) positive cells were excluded from the analysis.

Tax-iIEC-KO mice = settings: 8 to 10 weeks of age
Text: Atp8b1^flox/flox mice were mated with villin-Cre/ERT2 transgenic mice (Stock No. 020282; The Jackson Laboratory), and Atp8b1^flox/+; villin-Cre/ERT2 mice in the obtained offsprings were then mated with Atp8b1^flox/flox mice to obtain Tamoxifen-induced, intestinal epithelial cell (IEC)-specific Atp8b1 knockout (Atp8b1Tax-iIEC-KO: Atp8b1^flox/flox; villin-Cre/ERT2) mice (Atp8b1 Tax-iIEC-KO mice). The resulting Atp8b1 Tax-iIEC-KO mice and littermate Atp8b1^flox/flox mice were used for animal experiments.
ALT and AST were determined by automatic measurement with Dri-chem (FUJIFILM, Tokyo, Japan).
The concentrations of choline, betaine, dimethylglycine (N,N-dimethylglycine) and glycerophosphorylcholine (sn-glycero-3-phosphocholine) in plasma were determined by liquid chromatography/tandem mass spectrometry (LC/MS/MS) assay. The sample was mixed with 98-fold volume of ethanol and 1-fold volume of the internal standard (IS) solution (10 μmol/L choline in water, 10 μmol/L glycerophosphorylcholine in water, and 1 μmol/L betaine in water). After vortex mixing, the sample was centrifuged at 21,500×g at 4° C. for 5 minutes. The obtained supernatant was injected into a UHPLC Nexera liquid chromatography system (Shimadzu co., Kyoto, Japan) equipped with an Ascentis Express HILIC column (2.1×50 mm, 2.7 μm, Merck KGaA, Darmstadt, Germany), and was then maintained at 4° C. The analyte was separated from the internal standard by gradient elution of mobile phase A (10 mmol/L ammonium acetate in water) and of mobile phase B (acetonitrile/water mixture) (99:1, v/v)). The gradient elution was carried out under the following conditions: 0-2 min., 82.5% B; 2-4 min., 82.5% to 5% B and 4-7 min. 5% B with a flow rate of 0.6 mL/min. The eluate was directly subjected to electrospray ionization under a positive ion mode using a 5500QTRAP mass spectrometer (Sciex pte. ltd., Toronto, Canada). All target molecules were scanned by selected reaction monitoring (SRM) mode.
Eight-week-old Tax-iIEC-KO mice and control mice were started to be orally administered with a normal saline, or with 50 mg/kg, 150 mg/kg or 500 mg/kg chloride choline, three times a day, and at the same time, the Tax-iIEC-KO mice and the control mice were administered with 1 mg/day of Tamoxifen for 5 consecutive days. Oral administration with a normal saline, or with 50 mg/kg, 150 mg/kg or 500 mg/kg chloride choline, three times a day, was continued, and thereafter, the mice were dissected at 10 weeks of age. The doses of 150 mg/kg and 500 mg/kg were determined by estimating the amount of choline consumed by the 0.3% choline supplemented diet group and the 1% choline supplemented diet group based on the daily food intake of mice.

Caco-2 cells = test: Cytotoxicity test (LDH release) in wild-type Caco-2 cells; settings: wild-type Caco-2 cell line; 24 hours; various concentrations
Procedure: (§1) Caco-2 cells were cultured in DMEM (Dulbecco's modified Eagle's medium) (11995-065, Thermo Fisher Scientific) supplemented with 10% fetal bovine serum (10437, Thermo Fisher Scientific), 1% nonessential amino acids (11140-050, Thermo Fisher Scientific), 1% penicillin and streptomycin (15140-122, Thermo Fisher Scientific). The cells were cultured under conditions of 37° C., 5% CO2 and a humidity of 95%.
(§2) 5 mM Edelfosine dissolved in ethanol (CAY-60912-10, Cayman), 10 mg/mL lysophosphatidylcholine (LysoPC) dissolved in water/ethanol (1:1, v/v) (123-03781, FUJIFILM Wako Pure Chemical), and 10 mg/mL lysophosphatidylethanolamine (LysoPE) (L4754, Sigma-Aldrich) dissolved in ethanol were prepared as stock solutions. Caco-2 cells and ATP8B1 KO Caco-2 cells were seeded on 96-well plates at a cell density of 50,000 cells/well, and were then cultured, while replacing the medium with a fresh medium every 2 days. After 7 days of the culture, the cells were cultured for 24 hours in a new medium supplemented with various concentrations of edelfosine, lysophosphatidylcholine and lysophosphatidylethanolamine. Cytotoxicity was measured using, as an indicator, the amount of lactate dehydrogenase (LDH) released from the injured cells into the medium. The amount of LDH in the medium was measured using the Cytotoxicity LDH Assay Kit-WST (CK12, Dojindo) according to the instructions included therewith.

ATP8B1 KO Caco-2 cells = test: Cytotoxicity test (LDH release) in ATP8B1 KO Caco-2 cells; settings: ATP8B1 KO Caco-2 cell line; 24 hours; various concentrations
Procedure: as §1, §2

[1] = to such an extent that extension of autologous liver survival was expected; cited from earlier work
[2] = CHO-K1 cells expressing functional ATP8B1 (ATP8B1+CDC50A)
[3] = CHO-K1 cells without ATP8B1 expression (EV)
[4] = oral 50 mg/kg three times a day
[5] = oral 150 mg/kg three times a day
[6] = oral 500 mg/kg three times a day

In the case of 18:1-06:0 NBD-PC, the “incorporation of NBD-lipid into the cells (flow cytometry)” value (shortened to “incorporation”) (ATP8B1+CDC50A; [2]) is reported as “incorporated into the cells” and the “incorporation” value (ATP8B1+CDC50A; [3]) is reported as “incorporated into the cells in reduced amounts”.

For `C[N+](C)(C)CCOP(=O)([O-])OCC(O)COC(=O)CCCCCCCCCCCNc1ccc([N+](=O)[O-])c2nonc12` (stereo not shown) [NBD-LysoPC, 12:0 LysoNBD-PC], the “incorporation” value (ATP8B1+CDC50A; [2]) was “incorporated into the cells” and the “incorporation” value (ATP8B1+CDC50A; [3]) was “incorporated into the cells in reduced amounts”.

With `C[N+](C)(C)CCO.[Cl-]` [chloride choline] the “body weight loss of the Tax-iIEC-KO mice” value (Tax-iIEC-KO mice; [4]) was “suppression”, the “concentration of betaine in the liver” value (Tax-iIEC-KO mice; [4]) was “recovered up to the same level as those in the control mice” and the “concentration of choline in the liver” value (Tax-iIEC-KO mice; [4]) was “recovered up to the same level as those in the control mice”. For the same molecule, the “liver injury markers (AST and ALT)” value (Tax-iIEC-KO mice; [4]) was “normalization”, the “body weight loss of the Tax-iIEC-KO mice” value (Tax-iIEC-KO mice; [5]) was “suppression” and the “concentration of betaine in the liver” value (Tax-iIEC-KO mice; [5]) was “recovered up to the same level as those in the control mice”. The “concentration of choline in the liver” value (Tax-iIEC-KO mice; [5]) was “recovered up to the same level as those in the control mice”, the “liver injury markers (AST and ALT)” value (Tax-iIEC-KO mice; [5]) was “normalization” and the “body weight loss of the Tax-iIEC-KO mice” value (Tax-iIEC-KO mice; [6]) was “suppression”. For the same molecule, the “concentration of betaine in the liver” value (Tax-iIEC-KO mice; [6]) was “recovered up to the same level as those in the control mice”, the “concentration of choline in the liver” value (Tax-iIEC-KO mice; [6]) was “recovered up to the same level as those in the control mice” and the “liver injury markers (AST and ALT)” value (Tax-iIEC-KO mice; [6]) was “normalization”.

In the case of lysophosphatidylcholine [LPC], the “cytotoxicity (LDH released into the medium)” value (Caco-2 cells) is reported as “did not cause significant cytotoxicity” and the “cytotoxicity (LDH released into the medium)” value (ATP8B1 KO Caco-2 cells) is reported as “increased cytotoxicity in a dose-dependent manner”.

In the case of sodium phenylbutyrate, the “therapeutic effects on PFIC1” value [1] is given as “did not exhibit therapeutic effects on PFIC1”.
